Assay results published in patent US20100003190A1, “Method for protecting renal tubular epithelial cells from radiocontrast nephropathy (RCN)” (Caritas St. Elizabeth's Medical Center of Boston, Inc., priority 2006, published 2010).

Key:
[1] = patients with chronic renal failure; cited from earlier work
caspase-3 = test: Caspase-3 activity (Caspase-Glo 3/7) in LLC-PK1 cells after radiocontrast media; assay type: cell-based, porcine
Description: Activity of caspase-3 was measured by the degradation of subtype-specific peptide substrate after exposure of LLC-PK1 cells to iohexol or iodixanol. In brief, cells were seeded in 96-well plates and treated with radiocontrast media as described. After removal of the media, 100 μl of the Caspase-Glo 3/7 reagent (Promega, Madison, Wis.) were added to each well, and cells were incubated at room temperature for 1 hour. Luminescence of each sample was measured on a luminometer (Lumat LB9507, EGG Berthold). As a control for specificity, DEVD-CHO (Calbiochem, EMD Biosciences), a caspase-3 inhibitor, was added to appropriate wells during incubation in a final concentration of 50 μM. In parallel, cells were stained in wells with crystal violet and the absorption at 600 nm was measured. For each well, the luminometer data were normalized to the level of crystal violet absorption.

LLC-PK1 cells = test: MTT cell viability of LLC-PK1 cells exposed to iodinated radiocontrast media, with or without rhEpo or darbepoetin; assay type: cell-based, porcine; details: LLC-PK1 cells (data not shown)
Description: (§1) HK-2, a proximal tubular cell line derived from normal human kidney, and LLC-PK1, a proximal renal tubular cell line of porcine origin, were obtained from the American Type Culture Collection ATCC (Manassas, Va.). HK-2 cells were grown in DMEM media (GIBCO) supplemented with 10% FBS (Hyclone), 15 mM HEPES, 2 mM L-glutamine, 50 U/ml penicillin, 50 μg/ml streptomycin (GIBCO), 0.1 μg/ml hydrocortisone, 5 μg/ml insulin, and 5 μg/ml apotransferrin (Sigma, St. Louis, Mo.). LLC-PK1 cells were maintained in medium 199 (GIBCO) supplemented with 10% FBS and penicillin-streptomycin. For the planned experiments, cells were seeded on 24-well plates at a density of 10^4 cells/cm^2 and cultured at 37° C. for 24 hours.
Cells were exposed to iodinated radiocontrast media (100 mg iodine/ml) for 6 hours at 37° C., then washed twice with Dulbecco PBS solution, and incubated in serum-free culture medium for 24 hours at 37° C. The cell viability was assessed by the mitochondrial activity in reducing MTT to form […] using a commercially available kit (Cell Proliferation Kit, Roche, Penzberg, Germany). […] Aliquots of the incubation medium were transferred to a 96-well microplate and absorbance was measured at 570 nm with the reference of 690 nm using a microplate reader (MRX-II, Dynex).

[2] = MTT cell viability of HK-2 cells exposed to iodinated radiocontrast media, with or without rhEpo; assay type: cell-based, human; details: human, HK-2 cells (proximal tubular cell line), HK-2 cells, 100 mg iodine/mL contrast media, read-out: reduction of cell viability (MTT); for cytotoxicity at 1 h, 100 mg iodine/mL: 1-hour incubation; for cytotoxicity at 6 h, 100 mg iodine/mL: 6-hour incubation
Description: as §1
(§2) […] The cell viability was assessed by the mitochondrial activity in reducing MTT to form […] using a commercially available kit (Cell Proliferation Kit, Roche, Penzberg, Germany). In brief, cells were incubated at 37° C. for 4 hours in 200 μl of serum-free, phenol red free medium containing 20 μl of the MTT labeling reagent. 200 μl of solubilization solution were added to each well and cells were incubated at 37° C. for 24 hours. Aliquots of the incubation medium were transferred to a 96-well microplate and absorbance was measured at 570 nm with the reference of 690 nm using a microplate reader (MRX-II, Dynex).

HK-2 cells = test: as above; assay type: cell-based, human
Description: as §1, §2

[3] = renal tubular epithelial cells, co-treatment, cell line not given

Question: Which elimination half-life [1] does the source give for `C[C@H](O)C(=O)Nc1c(I)c(C(=O)NC(CO)CO)c(I)c(C(=O)NC(CO)CO)c1I` [iopamidol] here?
Answer: The elimination half-life was “about 70 hours”.

Question: For DEVD-CHO, which “effect on radiocontrast-induced increase in caspase-3 activity” value (caspase-3; LLC-PK1 cells, iohexol or iodixanol, co-treatment with inhibitor 50 μM) is on record?
Answer: Its value is “abrogated”.

Question: For `CC(=O)N(CC(O)CN(C(C)=O)c1c(I)c(C(=O)NCC(O)CO)c(I)c(C(=O)NCC(O)CO)c1I)c1c(I)c(C(=O)NCC(O)CO)c(I)c(C(=O)NCC(O)CO)c1I` (stereo not shown) [iodixanol], which “cell damage by radio-contrast agent” value (LLC-PK1 cells) is on record?
Answer: The value was “marked cell damage”.

Question: And the “effect on caspase-3 activity” value (caspase-3; LLC-PK1 cells, 100 mg iodine/ml)?
Answer: The value was “induced an increase”.

Question: And the cytotoxicity at 1 h, 100 mg iodine/mL [2]?
Answer: The cytotoxicity at 1 h, 100 mg iodine/mL was 33%.

Question: What about the cytotoxicity at 6 h, 100 mg iodine/mL [2] of the same compound?
Answer: The cytotoxicity at 6 h, 100 mg iodine/mL was 48%.

Question: For `CC(=O)Nc1c(I)c(NC(C)=O)c(I)c(C(=O)O)c1I` [diatrizoate, 3,5-Diacetamido-2,4,6-triiodobenzoic acid], which “toxic effects on renal tubular cells, comparison between contrast media” value (HK-2 cells; HK-2 cells, 6-hour incubation) is on record?
Answer: The value was “more toxicity”.

Question: And the cytotoxicity at 1 h, 100 mg iodine/mL [2]?
Answer: The cytotoxicity at 1 h, 100 mg iodine/mL was 44%.

Question: What about the cytotoxicity at 6 h, 100 mg iodine/mL [2] of the same compound?
Answer: Its cytotoxicity at 6 h, 100 mg iodine/mL is 99%.

Question: What does the source list for `CC(=O)N(CC(O)CO)c1c(I)c(C(=O)NCC(O)CO)c(I)c(C(=O)NCC(O)CO)c1I` (stereo not shown) [iohexol]?
Answer: cell damage by radio-contrast agent (LLC-PK1 cells): marked cell damage; cytotoxicity at 1 h, 100 mg iodine/mL [2]: 36%; cytotoxicity at 6 h, 100 mg iodine/mL [2]: 60%

Question: Which “effect on iohexol-induced caspase-3 activation” value (caspase-3; LLC-PK1 cells, co-treatment, rhEpo 200 U/ml) does the source give for “rhEpo: Recombinant human erythropoietin, a widely available agent for the treatment of anemia; Epoetin alfa (EPOGEN) purchased from Amgen” here?
Answer: Its value is “suppressed”.

Question: What about the “reduction of the induction of caspase-3 activation by iohexol” value (caspase-3; co-treatment of cells with rhEpo) of the same compound?
Answer: The value was 20%.

Question: What about the “protective effect against cytotoxic effect of iodixanol” value (HK-2 cells; HK-2 cells, 200 U/ml rhEpo, iodixanol 100 mg iodine/ml) of the same compound?
Answer: Its value is “similarly protective”.

Question: And the “protective effect against cellular toxicity of iohexol” value (HK-2 cells; HK-2 cells, 6 hours iohexol, three concentrations of rhEpo (0-400 U/ml), dose dependent)?
Answer: Its value is “partially reversed”.

Question: What about the “concentration providing ceiling of protective effect” value (HK-2 cells; HK-2 cells, iohexol) of the same compound?
Answer: Its value is 200 U/ml.

Question: What about the “reduction of toxicity of iodixanol (MTT cell viability assay)” value (HK-2 cells; [3]) of the same compound?
Answer: Its value is 20%.

Question: What about the “reduction of toxicity of iohexol (MTT cell viability assay)” value (HK-2 cells; [3]) of the same compound?
Answer: The value was 20%.
